Data from patent publication US6395735B2, “Pharmaceutical compounds” (Eli Lilly and Company, priority 1997, dated 2002).
pEC50: −log10 of the molar value.

Each molecule was assayed against T1, human m4 receptors (Homo sapiens, UniProt P08173) (assay: Stimulation of cyclic AMP production in pertussis toxin-treated CHO-m4 cells). Conditions: forskolin present.
T1 construct: expressed in transfected cells; host or cells: CHO K1 cells
Type: cell-based
Method: Cyclic AMP Accumulation in Pertussis Toxin-Treated CHO m4 Cells. CHO K1 cells transfected with human m4 receptors were grown to near confluency in T-150 flasks using Dulbecco's Modified Eagle Medium (DMEM) containing 10% fetal bovine serum. Cells were detached with 0.05% trypsin, 0.53 mM EDTA, and were suspended in medium containing 100 ng/ml pertussis toxin. Cells were plated at 30,000 cells per well into 96 well plates. Eighteen to twenty hours later the medium was removed and the cells were washed with serum-bee medium. Attached cells were incubated at 37 C for one hour after addition of […] of serum free DMEM containing 1 mM 3-isobutyl-1-methylxanthine and 1 mM forskolin plus or minus drugs being tested. Incubations were terminated with […] per well of serum free DMEM containing 0.3% triton-X-100. After stopping incubations the plates were allowed to sit for 20 minutes to extract cAMP and samples were then diluted 2.5-fold and were assayed using the scintillation proximity assay of Amersham (Arlington Heights, Ill.).
Representative results from the M4 assay are as follows
Stimulation of cyclic AMP production in CHO-m4 cells.

T1 sequence (P08173 whole entry): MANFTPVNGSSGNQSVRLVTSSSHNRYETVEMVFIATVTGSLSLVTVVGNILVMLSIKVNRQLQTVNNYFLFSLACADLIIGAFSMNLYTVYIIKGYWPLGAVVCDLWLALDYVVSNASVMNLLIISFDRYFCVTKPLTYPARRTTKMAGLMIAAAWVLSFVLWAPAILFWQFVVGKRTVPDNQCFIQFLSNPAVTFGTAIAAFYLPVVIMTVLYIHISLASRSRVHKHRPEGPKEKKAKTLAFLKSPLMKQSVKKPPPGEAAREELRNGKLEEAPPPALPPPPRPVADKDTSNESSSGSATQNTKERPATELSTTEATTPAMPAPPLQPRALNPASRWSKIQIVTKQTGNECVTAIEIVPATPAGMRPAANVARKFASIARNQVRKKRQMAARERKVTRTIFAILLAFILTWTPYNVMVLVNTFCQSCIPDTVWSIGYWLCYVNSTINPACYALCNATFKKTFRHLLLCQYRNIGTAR

Compound | % Maximum Stimulation Compared to Oxotremorine-M [%]
COc1cc(OC)cc(C(=O)NC2c3cc(N=CN4CCCC4)ccc3CC2O)c1 (stereo not drawn) [Compound 36] | <20
CC(=Nc1ccc2c(c1)[C@@H](NC(=O)c1ccc(Cl)c(Cl)c1)[C@H](O)C2)N(C)C [Compound 76] | 130
O=C(NC1c2cc(N=CN3CCCC3)ccc2CC1O)c1ccc(C(F)(F)F)cc1 (stereo not drawn) [Compound 18] | 61
O=C(NC1c2cc(N=CN3CCCC3)ccc2CC1O)c1cccc(Cl)c1Cl (stereo not drawn) [Compound 31] | 45
O=C(NC1c2cc(N=CN3CCCC3)ccc2CC1O)c1cc(F)c(F)c(F)c1F (stereo not drawn) [Compound 40] | 96
O=C(N[C@@H]1c2cc(N=CN3CCCCC3)ccc2C[C@H]1O)c1cc(Cl)cc(Cl)c1 [Compound 97] | 36
O=C(N[C@@H]1c2cc(N=CN3CCCCC3)ccc2C[C@H]1O)c1cccc(Cl)c1Cl [Compound 88] | 52
CN(C)C=Nc1ccc2c(c1)[C@@H](NC(=O)c1cc(C(F)(F)F)cc(C(F)(F)F)c1)[C@H](O)C2 [Compound 60] | 100
CN(C)C=Nc1ccc2c(c1)[C@@H](NC(=O)c1cc3ccccc3s1)[C@H](O)C2 [Compound 69] | 14
CN(C)C=Nc1ccc2c(c1)[C@@H](NC(=O)c1cc(Cl)cc(Cl)c1)[C@H](O)C2 [Compound 58] | 74
O=C(NC1c2cc(N=CN3CCCC3)ccc2CC1O)c1c(F)ccc(F)c1F (stereo not drawn) [Compound 29] | <20
O=C(NC1c2cc(N=CN3CCCC3)ccc2CC1O)c1cc(F)cc(F)c1 (stereo not drawn) [Compound 23] | <20
CN(C)C=Nc1ccc2c(c1)[C@@H](NC(=O)c1ccc3ccccc3c1)[C@H](O)C2 [Compound 63] | 13
CN(C)C=Nc1ccc2c(c1)[C@@H](NC(=O)c1cccnc1Cl)[C@H](O)C2 [Compound 73] | 11
CN(C)C=Nc1ccc2c(c1)[C@@H](NC(=O)c1ccccc1)[C@H](O)C2 [Compound 57] | 5
CN(C)C=Nc1ccc2c(c1)[C@@H](NC(=O)c1cccc(C#N)c1)[C@H](O)C2 [Compound 61] | 39
CN(C)C=Nc1ccc2c(c1)[C@@H](NC(=O)c1ccc(C(F)(F)F)cc1)[C@H](O)C2 [Compound 75] | 6
O=C(NC1c2cc(N=CN3CCCC3)ccc2CC1O)c1cccc(F)c1F (stereo not drawn) [Compound 24] | 22
Cc1cccc(C(=O)NC2c3cc(N=CN4CCCC4)ccc3CC2O)c1 (stereo not drawn) [Compound 37] | 76

Compound | % Maximum Stimulation Compared to Oxotremorine-M [%]
O=C(NC1c2cc(N=CN3CCCC3)ccc2CC1O)C1CCC1 (stereo not drawn) [Compound 41] | <20
CCCc1ccc(C(=O)NC2c3cc(N=CN4CCCC4)ccc3CC2O)cc1 (stereo not drawn) [Compound 26] | <20
CN(C)C=Nc1ccc2c(c1)[C@@H](NC(=O)c1cccc3ccccc13)[C@H](O)C2 [Compound 71] | 95
O=C(N[C@@H]1c2cc(N=CN3CCCC3)ccc2C[C@H]1O)c1c(Cl)cccc1Cl [Compound 46] | 154
N#Cc1cccc(C(=O)NC2c3cc(N=CN4CCCC4)ccc3CC2O)c1 (stereo not drawn) [Compound 38] | <20
O=C(CSc1ccccc1)NC1c2cc(N=CN3CCCC3)ccc2CC1O (stereo not drawn) [Compound 28] | <20
CN(C)C=Nc1ccc2c(c1)[C@@H](NC(=O)C1CCCC1)[C@H](O)C2 [Compound 62] | 27
O=C(NC1c2cc(N=CN3CCCC3)ccc2CC1O)C1CCCCC1 (stereo not drawn) [Compound 11] | 34
O=C(NC1c2cc(N=CN3CCCC3)ccc2CC1O)c1cc(F)c(F)c(F)c1 (stereo not drawn) [Compound 39] | 43
CCCCc1ccc(C(=O)N[C@@H]2c3cc(N=CN4CCCC4)ccc3C[C@H]2O)cc1 [Compound 45] | <20
O=C(N[C@@H]1c2cc(N=CN3CCCCC3)ccc2C[C@H]1O)c1cc(F)cc(F)c1 [Compound 98] | 73
O=C(NC1c2cc(N=CN3CCCC3)ccc2CC1O)c1cccc(F)c1 (stereo not drawn) [Compound 30] | <20
O=C(NC1c2cc(N=CN3CCCC3)ccc2CC1O)C(F)(F)F (stereo not drawn) [Compound 19] | <20
O=C(N[C@@H]1c2cc(N=CN3CCCCC3)ccc2C[C@H]1O)c1ccc(Cl)c(Cl)c1 [Compound 77] | 214
O=C(N[C@@H]1c2cc(N=CN3CCCC3)ccc2C[C@H]1O)c1c(Cl)cc(Cl)cc1Cl [Compound 47] | <20
O=C(NC1c2cc(N=CN3CCCC3)ccc2CC1O)c1ccc2ccccc2c1 (stereo not drawn) [Compound 17] | 56
O=C(NC1c2cc(N=CN3CCCC3)ccc2CC1O)c1ccccc1Cl (stereo not drawn) [Compound 44] | 41
O=C(NC1c2cc(N=CN3CCCC3)ccc2CC1O)c1cccs1 (stereo not drawn) [Compound 21] | 23
CN(C)C=Nc1ccc2c(c1)[C@@H](NS(=O)(=O)c1ccc(Cl)c(Cl)c1)[C@H](O)C2 [Compound 72] | 4

Compound | % Maximum Stimulation Compared to Oxotremorine-M [%]
O=C(NC1c2cc(N=CN3CCCC3)ccc2CC1O)c1ccc(F)c(F)c1F (stereo not drawn) [Compound 33] | 45
O=C(NC1c2cc(N=CN3CCCC3)ccc2CC1O)c1ccccc1C(F)(F)F (stereo not drawn) [Compound 35] | 65
COc1cccc(C(=O)NC2c3cc(N=CN4CCCC4)ccc3CC2O)c1 (stereo not drawn) [Compound 34] | 45
CCCCOc1ccc(C(=O)N[C@@H]2c3cc(N=CN(C)C)ccc3C[C@H]2O)cc1 [Compound 59] | 22
CCCCc1ccc(C(=O)N[C@@H]2c3cc(N=CN(C)C)ccc3C[C@H]2O)cc1 [Compound 70] | 18
N#Cc1ccc(C(=O)NC2c3cc(N=CN4CCCC4)ccc3CC2O)cc1 (stereo not drawn) [Compound 13] | <20
CCc1ccc(C(=O)N[C@@H]2c3cc(N=CN(C)C)ccc3C[C@H]2O)cc1 [Compound 67] | 7
CN(C)C=Nc1ccc2c(c1)[C@@H](NC(=O)c1cc(F)cc(C(F)(F)F)c1)[C@H](O)C2 [Compound 64] | 52
O=C(NC1c2cc(N=CN3CCCC3)ccc2CC1O)c1cccnc1Cl (stereo not drawn) [Compound 12] | 26
CN(C)C=Nc1ccc2c(c1)[C@@H](NC(=O)C(F)(F)F)[C@H](O)C2 [Compound 66] | 0
Cc1cc(C)c(C(=O)NC2c3cc(N=CN4CCCC4)ccc3CC2O)c(C)c1 (stereo not drawn) [Compound 27] | <20
CN(C)C=Nc1ccc2c(c1)[C@@H](NC(=O)c1cc(F)c(F)c(F)c1)[C@H](O)C2 [Compound 65] | 30
O=C(NC1c2cc(N=CN3CCCC3)ccc2CC1O)c1cccc2ccccc12 (stereo not drawn) [Compound 15] | 76
CN(C)C=Nc1ccc2c(c1)[C@@H](NC(=O)c1sccc1Cl)[C@H](O)C2 [Compound 68] | 0
O=C(NC1c2cc(N=CN3CCCC3)ccc2CC1O)c1ccc([N+](=O)[O-])cc1Cl (stereo not drawn) [Compound 20] | 69
O=C(NC1c2cc(N=CN3CCCC3)ccc2CC1O)c1cccc([N+](=O)[O-])c1 (stereo not drawn) [Compound 25] | 43
O=C(NC1c2cc(N=CN3CCCC3)ccc2CC1O)c1cc(Cl)cc(Cl)c1 (stereo not drawn) [Compound 14] | 100
O=C(NC1c2cc(N=CN3CCCC3)ccc2CC1O)c1cc(F)ccc1F (stereo not drawn) [Compound 32] | <20
CN(C)C=Nc1ccc2c(c1)[C@@H](NC(=O)c1ccc(Cl)nc1)[C@H](O)C2 [Compound 74] | 8

What follows are molecules tested against T2, A9L-m1 (Homo sapiens, UniProt P11229) (assay: m1 secondary assay: PI stimulation in A9L-m1). Conditions: A9L-m1, relative to carbachol; read-out: Pl stim. A9L-m1 % Max of carbachol.
T2 sequence (P11229 1-460): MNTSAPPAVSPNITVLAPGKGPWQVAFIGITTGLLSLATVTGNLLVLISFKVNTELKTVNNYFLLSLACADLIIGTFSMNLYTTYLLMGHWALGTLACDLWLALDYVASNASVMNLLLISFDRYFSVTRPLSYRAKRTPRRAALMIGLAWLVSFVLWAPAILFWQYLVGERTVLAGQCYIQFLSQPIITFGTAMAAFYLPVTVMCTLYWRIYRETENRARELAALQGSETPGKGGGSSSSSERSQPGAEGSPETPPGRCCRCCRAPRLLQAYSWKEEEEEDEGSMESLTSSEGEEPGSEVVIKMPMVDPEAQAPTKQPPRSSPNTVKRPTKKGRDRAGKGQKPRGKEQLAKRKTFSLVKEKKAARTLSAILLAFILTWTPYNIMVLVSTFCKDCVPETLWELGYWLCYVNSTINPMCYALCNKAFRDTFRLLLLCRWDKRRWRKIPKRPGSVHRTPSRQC
Type: cell-based

Compound | Emax [%]
O=C(NC1c2cc(/N=C/N3CCCC3)ccc2C[C@@H]1O)c1ccc(F)c(Br)c1 (stereo partly drawn) [Compound 131] | 70.5
Cc1cc(C(=O)NC2c3cc(/N=C/N4CCCC4)ccc3C[C@@H]2O)ccc1Br (stereo partly drawn) [Compound 129] | 42
Cc1ccc(C(=O)NC2c3cc(/N=C/N4CCCC4)ccc3C[C@@H]2O)cc1Br (stereo partly drawn) [Compound 132] | 59

Same assay, conditions: A9L-m1; read-out: ED-50 Pl stim A9L-m1, nm

Compound | pEC50
O=C(NC1c2cc(/N=C/N3CCCC3)ccc2C[C@@H]1O)c1ccc(F)c(Br)c1 (stereo partly drawn) [Compound 131] | 7.36
Cc1cc(C(=O)NC2c3cc(/N=C/N4CCCC4)ccc3C[C@@H]2O)ccc1Br (stereo partly drawn) [Compound 129] | 7.38
Cc1ccc(C(=O)NC2c3cc(/N=C/N4CCCC4)ccc3C[C@@H]2O)cc1Br (stereo partly drawn) [Compound 132] | 6.74
